Source: PMC5471521, “Novel selective β1-adrenoceptor antagonists for concomitant cardiovascular and respiratory disease” (The FASEB Journal, 2017)

Tests used:
human β2-AR = target: T1, human β2-AR (Homo sapiens, UniProt P07550); assay: Antagonism of cimaterol-induced 3H-cAMP accumulation in CHO-β2 cells; format: cell-based; conditions: cimaterol agonist, mean ± SEM, read-out: Log Kd,β2 (converted)
T1 construct: expressed in transfected cells
Method: (§1) Confluent cells were examined (24-well plates, 5 h incubation at 37°C) as described in Baker ([45]). Antagonist Kd values were calculated from a rightward shift of the agonist concentration response curve by using the Gaddum equation as previously described ([46]).

[1] = target: T2, native β2-AR in human bronchial smooth muscle cells (Homo sapiens, UniProt P07550); assay: Antagonism of cimaterol-induced 3H-cAMP accumulation in human bronchial smooth muscle cells; format: cell-based; conditions: cimaterol agonist, mean ± SEM
T2 construct: human bronchial smooth muscle cells (that natively express β2-AR); host or cells: human bronchial smooth muscle cells
Method: Human bronchial smooth muscle cells were obtained from Lonza (Basel, Switzerland) and grown in manufacturer media. Rat β-AR binding experiments (DNA from cDNA Resource Centre, Bloomsburg, PA, USA) were conducted by using transiently transfected CHO cells ([44]). […] Antagonist Kd values were calculated from a rightward shift of the agonist concentration response curve by using the Gaddum equation as previously described ([46]).

human β1-AR [2] = target: T3, human β1-AR (Homo sapiens, UniProt P08588); assay: Duration of ligand binding (washout, 3H-CGP12177 whole-cell binding in CHO-β1 cells); conditions: greater shift = shorter duration of binding; mean ± SEM
T3 construct: expressed in transfected cells
Method: A method that involved ligand washout was used as described ([44]). Cells were incubated with either competing ligand and ^3H-CGP12177 for 2 h (control plate), or competing ligand alone for 2 h (duration plate). After 2 h, the control plate was processed while the duration plate was washed, and ^3H-CGP12177 alone was added to wells and incubated for a second 2 h before processing. […] Relative measures of ligand duration of binding are indicated by the degree of rightward shift of displacement curves ([44]).

human β1-AR [3] = target: T3, human β1-AR; assay: 3H-cAMP accumulation agonist response in CHO-β1 cells; format: cell-based; conditions: agonist mode
Method: as §1

human β1-AR [4] = target: T3, human β1-AR; assay: CRE-SPAP reporter gene assay in CHO-β1 cells; format: cell-based; conditions: agonist mode, n = 5
Method: cAMP response element (CRE)–secreted placental alkaline phosphatase (SPAP) production was measured in confluent cells (96-well plates, 5 h incubation at 37°C) as described in Baker ([46]). This assay is a sensitive measure of both cAMP and ERK1/2 MAPK pathways ([47]).

human β1-AR [5] = target: T3, human β1-AR; assay: Direct measurement of ERK1/2 MAPK phosphorylation in CHO-β1 cells; format: cell-based; conditions: 3 and 10 μM, 5- and 10-min incubations
Method: MAPK stimulation was examined by using the AlphaScreen Surefire ERK1/2 T202/Y204 assay kit from TGR Biosciences (PerkinElmer, Waltham, MA, USA), which gives a direct quantitative readout of ERK1/2 (p42/44) MAPK phosphorylation. Confluent cells (half-well 96-well plates) were serum starved for 24 h, then the assay was performed per manufacturer instructions (5- and 10-min incubations at 37°C: ligand concentrations of 3 and 10 μM). Phorbol 12,13-dibutyrate (1 μM) was used as a positive control.

5-HT2A = 5-HT2A (Homo sapiens, UniProt P28223); assay: Cerep receptor radioligand-binding assay; conditions: for Ki: concentration-response, Cheng-Prusoff
Method: […]; Ki (inhibition constant) was calculated by using the Cheng-Prusoff equation from the mean of duplicate determinations in cell-based receptor radioligand-binding assays. Cerep in vitro pharmacology profiling service was used (see the Supplemental Data for a list of the assays used).

human albumin = human albumin (Homo sapiens, UniProt P02768); assay: Plasma protein binding estimated from retention on human albumin columns; format: in vitro ADME; conditions: human albumin chromatography column, chromatographic estimate, read-out: Plasma protein binding PPB (converted)
[6] = Metabolic stability, rat liver microsomes; format: in vitro ADME; conditions: in the presence of NAD+, NADPH, or in the absence of cofactors
Method: NDD-713.HCl and -825.HCl were incubated (0.02, 0.1, or 0.5 μM at 37°C, 120 min) with human (XenoTech, Kansas City, KS, USA) or rat liver microsomes (BD Biosciences, Brea, CA, USA) at 0.4 mg/ml protein concentration. Metabolic reaction was initiated by addition of NADPH-regenerating system or NADPH-regenerating system with uridine diphosphate glucuronic acid. Samples were quenched at time points by acetonitrile addition. Control samples, which contained neither NADPH, nor uridine diphosphate glucuronic acid, were monitored for degradation. Compound concentrations were determined by ultraperformance LC-MS (UPLC-MS) relative to calibration standards that were prepared in quenched liver microsomes and fitted to exponential decay functions to determine first-order rate constants (k) for substrate depletion. These were used to calculate in vitro intrinsic clearance (CLint) values: CLint = k/microsomal protein content (0.4 mg protein/ml). Metabolic stability assays that used rat liver cytosol (BD Biosciences), human cryopreserved hepatocytes, or rat hepatocytes were carried out similarly. Average viable cell concentrations were determined by Trypan Blue exclusion methods (in the absence of test compounds). Studies were carried out by CDCO.

[7] = tested on: HR (β1) and HQC (β2) in conscious rats; assay: In vivo β1- vs. β2-selectivity, intravenous β-blocker, conscious rats (isoprenaline responses); set-up: species or system rat; conditions: i.v. 2 mg/kg bolus + 1 mg/kg/h infusion, n = 4
Method: Adult male Sprague-Dawley rats, weighing 300−400 g, were chronically instrumented with pulsed Doppler flow probes and intravascular catheters for cardiovascular monitoring and drug administration in a 2-stage surgical protocol as described ([51]). Surgery was performed under general anesthesia (fentanyl and medetomidine, 300 μg/kg of each, i.p.), with reversal and postoperative analgesia provided by atipamezole (1 mg/kg, s.c.) and buprenorphine (0.02 mg/kg, s.c.). Experiments were performed with animals that were fully conscious and unrestrained in home cages and given free access to food and water. Cardiovascular variables were recorded by using a customized, computer-based system (Instrument Development Engineering Evaluation, Maastrich Instruments Bv, Maastrich, The Netherlands) with raw data sampled every 2 ms. Hindquarters vascular conductance (HQC) was calculated as Doppler shift (flow)/mean arterial pressure.
Isoprenaline infusions were repeated during the final 60 min of β-blocker infusion and 3–4 and 23–24 h after β-blocker infusions finished.
Isoprenaline responses shown are absolute values for HR and HQC before the first dose of isoprenaline (baseline) and during the third minute of infusion of each dose. Values at baseline and during the highest isoprenaline dose were tested for statistical significance by using a nonparametric ANOVA test with correction for repeat measures [Quade test ([52])]. A value of P < 0.05 was taken as significant.

T3 sequence (P08588 whole entry): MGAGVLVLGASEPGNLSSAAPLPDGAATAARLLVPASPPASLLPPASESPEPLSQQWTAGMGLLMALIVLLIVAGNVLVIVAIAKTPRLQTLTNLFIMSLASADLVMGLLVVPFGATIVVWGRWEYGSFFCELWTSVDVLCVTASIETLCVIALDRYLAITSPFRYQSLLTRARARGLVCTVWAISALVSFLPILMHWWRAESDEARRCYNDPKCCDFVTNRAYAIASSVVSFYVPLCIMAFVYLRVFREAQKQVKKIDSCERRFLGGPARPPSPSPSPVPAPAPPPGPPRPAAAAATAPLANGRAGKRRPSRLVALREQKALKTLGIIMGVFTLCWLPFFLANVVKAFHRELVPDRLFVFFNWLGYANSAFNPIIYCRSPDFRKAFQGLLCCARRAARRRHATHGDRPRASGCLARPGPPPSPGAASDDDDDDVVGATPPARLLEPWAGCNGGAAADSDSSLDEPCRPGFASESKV
Sequence of 5-HT2A (P28223 whole entry): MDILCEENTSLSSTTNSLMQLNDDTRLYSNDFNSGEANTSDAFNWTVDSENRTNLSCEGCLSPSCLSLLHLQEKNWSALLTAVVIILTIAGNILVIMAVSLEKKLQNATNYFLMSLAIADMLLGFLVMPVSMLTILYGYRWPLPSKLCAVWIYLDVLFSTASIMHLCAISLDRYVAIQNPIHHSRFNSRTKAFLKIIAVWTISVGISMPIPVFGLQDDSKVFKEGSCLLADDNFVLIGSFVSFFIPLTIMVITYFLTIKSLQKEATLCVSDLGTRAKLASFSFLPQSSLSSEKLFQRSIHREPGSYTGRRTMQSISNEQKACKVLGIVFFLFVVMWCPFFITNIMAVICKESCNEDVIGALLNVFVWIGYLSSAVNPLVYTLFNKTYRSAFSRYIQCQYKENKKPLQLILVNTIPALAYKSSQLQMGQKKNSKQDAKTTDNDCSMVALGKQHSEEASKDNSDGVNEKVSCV
Sequence of human albumin (P02768 25-609): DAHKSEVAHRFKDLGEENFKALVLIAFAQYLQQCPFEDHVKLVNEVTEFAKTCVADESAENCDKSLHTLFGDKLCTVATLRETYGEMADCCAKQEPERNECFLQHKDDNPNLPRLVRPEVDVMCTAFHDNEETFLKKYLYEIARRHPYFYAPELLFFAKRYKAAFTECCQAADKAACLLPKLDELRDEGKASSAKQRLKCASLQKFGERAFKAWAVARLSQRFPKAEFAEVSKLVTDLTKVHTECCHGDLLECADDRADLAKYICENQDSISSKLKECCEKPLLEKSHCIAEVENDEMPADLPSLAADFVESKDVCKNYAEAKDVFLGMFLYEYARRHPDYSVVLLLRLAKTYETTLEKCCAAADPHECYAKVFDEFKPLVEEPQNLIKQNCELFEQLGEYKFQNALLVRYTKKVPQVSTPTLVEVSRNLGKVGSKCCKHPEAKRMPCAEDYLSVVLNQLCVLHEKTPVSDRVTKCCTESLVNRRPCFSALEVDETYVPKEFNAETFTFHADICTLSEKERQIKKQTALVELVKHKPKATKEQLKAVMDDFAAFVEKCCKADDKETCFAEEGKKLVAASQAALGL
T2 sequence (P07550 whole entry): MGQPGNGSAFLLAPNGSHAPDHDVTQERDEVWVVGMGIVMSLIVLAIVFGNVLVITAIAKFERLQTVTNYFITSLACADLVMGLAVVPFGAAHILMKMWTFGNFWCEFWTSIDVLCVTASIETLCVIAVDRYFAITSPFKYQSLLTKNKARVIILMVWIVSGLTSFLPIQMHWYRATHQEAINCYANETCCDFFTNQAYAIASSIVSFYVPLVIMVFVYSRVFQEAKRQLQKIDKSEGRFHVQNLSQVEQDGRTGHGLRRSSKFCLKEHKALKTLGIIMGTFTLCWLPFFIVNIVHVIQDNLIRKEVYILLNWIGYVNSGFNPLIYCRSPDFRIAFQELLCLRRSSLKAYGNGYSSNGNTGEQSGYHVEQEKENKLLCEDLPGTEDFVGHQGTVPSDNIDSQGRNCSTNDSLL
T1 sequence (P07550 whole entry): as above

SMILES: NC(=O)c1ccc(OCCNC[C@H](O)COc2ccc3c(c2)OC[C@@H](COCC2CC2)O3)cc1 [NDD-713]
- Kd (human β2-AR): 3.63 µM
- Kd [1]: 3.39 µM
- Log shift (rightward shift of washout curve vs control) (human β1-AR [2]): 1.75 ± 0.08
- Maximum 3H-cAMP response relative to isoprenaline (human β1-AR [3]): No ^3H-cAMP responses were observed
- CRE-SPAP production relative to isoprenaline maximum (human β1-AR [4]): no responses were observed
- Agonist response by directly measuring ERK1/2 MAPK (human β1-AR [5]): did not stimulate any agonist response
- β1-selectivity over the 5-HT2A receptor (5-HT2A): 510 fold
- Ki (5-HT2A): 7.7 µM
- fraction unbound (human albumin): 0.365
- microsomal CLint [6]: < 0.1 µL/min/mg
- Effect on basal and isoprenaline-stimulated HR (β1) [7]: suppressed basal and isoprenaline-induced HR
- Effect on isoprenaline HQC response (β2) [7]: no effect on HQC responses

SMILES: O=C1NCc2cc(OCCNC[C@H](O)COc3ccc4c(c3)OC[C@@H](COCC3CC3)O4)ccc21 [NDD-825]
- Kd (human β2-AR): 1.78 µM
- Kd [1]: 1.35 µM
- Log shift (rightward shift of washout curve vs control) (human β1-AR [2]): 1.62 ± 0.11
- Maximum 3H-cAMP response relative to isoprenaline (human β1-AR [3]): No ^3H-cAMP responses were observed
- CRE-SPAP production relative to isoprenaline maximum (human β1-AR [4]): no responses were observed
- Agonist response by directly measuring ERK1/2 MAPK (human β1-AR [5]): did not stimulate any agonist response
- β1-selectivity over the 5-HT2A receptor (5-HT2A): 1115 fold
- Ki (5-HT2A): 5.8 µM
- fraction unbound (human albumin): 0.265
- microsomal CLint [6]: 0.18 ± 0.2 µL/min/mg
- Effect on basal and isoprenaline-stimulated HR (β1) [7]: suppressed basal and isoprenaline-induced HR
- Effect on isoprenaline HQC response (β2) [7]: no effect on HQC responses
